According to patent US20250257064A1, “TRIFLUOROMETHYL-SUBSTITUTED SULFONAMIDE AS BCL-2-SELECTIVE INHIBITOR” (Chia Tai Tianqing Pharmaceutical Group Co., Ltd., priority 2018, published 2025):

Columns and labels:
[1] = target: T1, BCL-2/BAK (Homo sapiens, UniProt P10415); assay: Screening on inhibitory activity for BCL-2/BAK binding (Cisbio HTRF kit)
T1 construct: purchased Cisbio
Method: 1.1 Screening on Inhibitory Activity for BCL-2/BAK Binding
500 nM Tag1-BCL-2 protein stock solution and 20 μM Tag2-BAK protein stock solution were diluted to 5 nM and 120 nM respectively with dilution buffer in kit (model: BCL-2/BAK (BH3) BINDING ASSAY KITS, from Cisbio). 5 μL of Tag1-BCL-2 protein diluent was added to each well, then different compounds dissolved with DMSO were added to the wells with a nanoliter pipettor, allowing the final compound concentrations to be 200 nM to 0.0488 nM (4-fold gradient for 7 concentrations in total). Blank control wells (without enzyme) and negative control wells (with enzyme, plus vehicle DMSO) were set, and 2 replicate wells were set. Finally, 5 μL of Tag2-BAK protein diluent was added to each well, and the mixture was mixed well by centrifugation and incubated at 25° C. for 15 min. 100× anti-Tag1-Eu^3+ and 100× anti-Tag2-XL665 were both diluted to 1× working concentration with the detection buffer in the kit. Anti-Tag1-Eu^3+ and anti-Tag2-XL665 were mixed well in a 1:1 ratio, and the mixture was added to wells at 5 μL/well, and incubated at 25° C. for 2 h or more. The plate was read using a PE Envision multi-functional microplate reader (excitation: […], emission: 665 nm) and IC50 (shown in table 1) was calculated by four-parameter fitting.

[2] = target: T2, BCL-XL/BAK (Homo sapiens, UniProt Q07817); assay: Screening on inhibitory activity for BCL-XL/BAK binding (Cisbio HTRF kit)
T2 construct: purchased Cisbio
Method: 1.2 Screening on Inhibitory Activity for BCL-XL/BAK Binding
300 nM Tag1-BCL-XL protein stock solution and 10 μM Tag2-BAK protein stock solution were diluted to 2 nM and 80 nM respectively with dilution buffer in kit (model: BCL-XL/BAK (BH3) BINDING ASSAY KITS, from Cisbio). 5 μL of Tag1-BCL-XL protein diluent was added to each well, then different compounds dissolved with DMSO were added to the wells with a nanoliter pipettor, allowing the final compound concentrations to be 2000 nM to 0.488 nM (4-fold gradient for 7 concentrations in total). Blank control wells (without enzyme) and negative control wells (with enzyme, plus vehicle DMSO) were set, and 2 replicate wells were set. Finally, 5 μL of Tag2-BAK protein diluent was added to each well, and the mixture was mixed well by centrifugation and incubated at 25° C. for 15 min. 100× anti-Tag1-Eu^3+ and 100× anti-Tag2-XL665 were both diluted to 1× working concentration with the detection buffer in the kit. Anti-Tag1-Eu^3+ and anti-Tag2-XL665 were mixed well in a 1:1 ratio, and the mixture was added to wells at 5 µL/well, and incubated at 25° C. for 2 h or more. The plate was read using a PE Envision multi-functional microplate reader (excitation: […], emission: 665 nm) and IC50 (shown in table 1) was calculated by four-parameter fitting.

[3] = system: RS4;11 cells; assay: Inhibitory effect on proliferation of RS4;11 cells (CCK-8); format: cell-based, human; conditions: Homo sapiens, RS4-11, 72 h
Method: Experimental Example 2: Inhibitory Effect of Compounds on Proliferation of RS4;11 Cells
RS4;11 cells (from Nanjing Cobioer) in logarithmic growth phase and good cell condition were added to a centrifuge tube and centrifuged at 1500 rpm for 3 min in a low speed centrifuge. The supernatant was discarded, and 5 mL of complete medium (RPMI basic medium+10 wt % fetal bovine serum (FBS)) was added using a pipette for cell resuspension. The cells were counted using a cell counter, diluted with complete medium to a cell density of 2×10^5 cells/mL, and added with an equivalent amount of RPMI basic medium to adjust the serum concentration to 5% and the cell density to 1×10^5 cells/mL for plate seeding. The cells were seeded on a 96-well plate at 100 μL/well using a pipettor, and incubated in an incubator at 37° C., 5% CO2 with saturated humidity. After 24 h of incubation, compounds were loaded using a nanoliter pipettor, 2 duplicate wells were set for each concentration, and cells without compound were used as negative controls. […] Inhibition rate (%)=(mean value of negative control group—mean value of experimental group)/(mean value of negative control group—mean value of blank group)×100%. A dose-response curve was fitted by four-parameter analysis, with the logarithm of compound concentration serving as abscissa and inhibition rate serving as ordinate, so that IC50 was calculated (FIG. 2).

T2 sequence (Q07817 whole entry, species assumed): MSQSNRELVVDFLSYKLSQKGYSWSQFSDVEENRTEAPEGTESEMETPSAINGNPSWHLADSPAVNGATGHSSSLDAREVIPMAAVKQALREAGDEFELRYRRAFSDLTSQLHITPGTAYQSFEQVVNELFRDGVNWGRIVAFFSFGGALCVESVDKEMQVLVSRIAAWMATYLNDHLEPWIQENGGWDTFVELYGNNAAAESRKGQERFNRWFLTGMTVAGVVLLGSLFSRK
T1 sequence (P10415 whole entry, species assumed): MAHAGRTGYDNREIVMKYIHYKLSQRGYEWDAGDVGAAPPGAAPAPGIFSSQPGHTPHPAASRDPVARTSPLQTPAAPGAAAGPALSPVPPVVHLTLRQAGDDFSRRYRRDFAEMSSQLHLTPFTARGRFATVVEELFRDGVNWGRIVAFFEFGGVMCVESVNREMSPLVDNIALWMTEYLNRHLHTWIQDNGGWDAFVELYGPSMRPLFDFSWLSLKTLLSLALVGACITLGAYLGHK

Molecule | IC50 [1] [nM] | IC50 [2] [nM] | IC50 [3] [nM]
CC1(C)CCC(CN2CCN(c3ccc(C(=O)NS(=O)(=O)c4ccc(NCC5CCCN(S(C)(=O)=O)C5)c([N+](=O)[O-])c4)c(Oc4cnc5[nH]ccc5c4)c3)CC2)=C(c2ccc(C(F)(F)F)cc2Cl)C1 (centres unmarked) [Compound 15-1] | 3.83 | 729 | 7.2
CC1(C)CCC(CN2CCN(c3ccc(C(=O)NS(=O)(=O)c4ccc(NCCC5CN(S(C)(=O)=O)CCO5)c([N+](=O)[O-])c4)c(Oc4cnc5[nH]ccc5c4)c3)CC2)=C(c2ccc(C(F)(F)F)cc2Cl)C1 (centres unmarked) [Compound 21-1, 4-(4-{[2-(2-chloro-4-trifluoromethylphenyl)-4,4-dimethylcyclohex-1-enyl]methyl}-piperazin-1-yl)-N-({3-nitro-4-[(2-(4-(methylsulfonyl)morpholin-2-yl)ethyl)amino]phenyl}sulfonyl)-2-(1H-pyrrolo[2,3-b]pyridin-5-yloxy)-benzamide] | 2.4 | – | 4.1
CCN1CCOCC1CNc1ccc(S(=O)(=O)NC(=O)c2ccc(N3CCN(CC4=C(c5ccc(C(F)(F)F)cc5Cl)CC(C)(C)CC4)CC3)cc2Oc2cnc3[nH]ccc3c2)cc1[N+](=O)[O-] (centres unmarked) [Compound 24-1, 4-(4-{[2-(2-chloro-4-trifluoromethylphenyl)-4,4-dimethylcyclohex-1-enyl]methyl}-piperazin-1-yl)-N-({3-nitro-4-[((4-ethylmorpholin-3-yl)methyl)amino]phenyl}sulfonyl)-2-(1H-pyrrolo[2,3-b]pyridin-5-yloxy)-benzamide] | 5.11 | 556 | –
CC1(C)CCC(CN2CCN(c3ccc(C(=O)NS(=O)(=O)c4ccc(NC[C@@H]5CCCO5)c([N+](=O)[O-])c4)c(Oc4cnc5[nH]ccc5c4)c3)CC2)=C(c2ccc(C(F)(F)F)cc2Cl)C1 [Compound 37-1, (S)-4-(4-{[2-(2-chloro-4-trifluoromethylphenyl)-4,4-dimethylcyclohex-1-enyl]methyl}-piperazin-1-yl)-N-({3-nitro-4-[((tetrahydrofuran-2-yl)methyl)amino]phenyl}sulfonyl)-2-(1H-pyrrolo[2,3-b]pyridin-5-yloxy)-benzamide] | 1.59 | 142 | –
4-(4-{[2-(2-chloro-4-trifluoromethylphenyl)-4,4-dimethylcyclohex-1-enyl]methyl}-piperazin-1-yl)-N-({3-nitro-4-[(4-((trifluoromethyl) sulfonyl)morpholin-2-yl)methyl)amino]phenyl}sulfonyl)-2-(1H-pyrrolo[2,3-b]pyridin-5-yloxy)-benzamide [Compound 56-1] | 3.55 | 381 | –
CC1(C)CCC(CN2CCN(c3ccc(C(=O)NS(=O)(=O)c4ccc(NC[C@@H]5CCOC5)c([N+](=O)[O-])c4)c(Oc4cnc5[nH]ccc5c4)c3)CC2)=C(c2ccc(C(F)(F)F)cc2Cl)C1 [Compound 36-1, (S)-4-(4-{[2-(2-chloro-4-trifluoromethylphenyl)-4,4-dimethylcyclohex-1-enyl]methyl}-piperazin-1-yl)-N-({3-nitro-4-[((tetrahydrofuran-3-yl)methyl)amino]phenyl}sulfonyl)-2-(1H-pyrrolo[2,3-b]pyridin-5-yloxy)-benzamide] | 1.78 | 157 | –

Second part, the molecule after the results:

IC50 [1] [nM] | IC50 [2] [nM] | IC50 [3] [nM] | Molecule
0.86 | > 2000 | – | CC1(C)CCC(CN2CCN(c3ccc(C(=O)NS(=O)(=O)c4ccc(NCC5CCOCC5)c([N+](=O)[O-])c4)c(Oc4cnc5[nH]ccc5c4)c3)CC2)=C(c2ccc(Cl)cc2C(F)(F)F)C1 [Compound 3-1, 4-(4-{[2-(4-chloro-2-trifluoromethylphenyl)-4,4-dimethylcyclohex-1-enyl]methyl}-piperazin-1-yl)-N-({3-nitro-4-[(tetrahydro-2H-pyran-4-ylmethyl)amino]phenyl}sulfonyl)-2-(1H-pyrrolo[2,3-b]pyridin-5-yloxy)-benzamide]
1.9 | – | 1.1 | CC1(C)CCC(CN2CCN(c3ccc(C(=O)NS(=O)(=O)c4ccc(NCC5CN(C(=O)CC#N)CCO5)c([N+](=O)[O-])c4)c(Oc4cnc5[nH]ccc5c4)c3)CC2)=C(c2ccc(C(F)(F)F)cc2Cl)C1 (centres unmarked) [Compound 51-1, 4-(4-{[2-(2-chloro-4-trifluoromethylphenyl)-4,4-dimethylcyclohex-1-enyl]methyl}-piperazin-1-yl)-N-({3-nitro-4-[((4-(2-cyanoacetyl)morpholin-2-yl)methyl)amino]phenyl}sulfonyl)-2-(1H-pyrrolo[2,3-b]pyridin-5-yloxy)-benzamide]
2.32 | 122 | – | COCC(=O)N1CCOC(CCNc2ccc(S(=O)(=O)NC(=O)c3ccc(N4CCN(CC5=C(c6ccc(C(F)(F)F)cc6Cl)CC(C)(C)CC5)CC4)cc3Oc3cnc4[nH]ccc4c3)cc2[N+](=O)[O-])C1 (centres unmarked) [Compound 72-1, 4-(4-{[2-(2-chloro-4-trifluoromethylphenyl)-4,4-dimethylcyclohex-1-enyl]methyl}-piperazin-1-yl)-N-({3-nitro-4-[(2-(4-(2-methoxyacetyl)morpholin-2-yl)ethyl)amino]phenyl}sulfonyl)-2-(1H-pyrrolo[2,3-b]pyridin-5-yloxy)-benzamide]
1.1 | – | 1.3 | CN(C)CC(=O)N1CCCC(CNc2ccc(S(=O)(=O)NC(=O)c3ccc(N4CCN(CC5=C(c6ccc(C(F)(F)F)cc6Cl)CC(C)(C)CC5)CC4)cc3Oc3cnc4[nH]ccc4c3)cc2[N+](=O)[O-])C1 (centres unmarked) [Compound 60-1]
2.18 | 243 | – | CC1(C)CCC(CN2CCN(c3ccc(C(=O)NS(=O)(=O)c4ccc(NCCC5CCCOC5)c([N+](=O)[O-])c4)c(Oc4cnc5[nH]ccc5c4)c3)CC2)=C(c2ccc(C(F)(F)F)cc2Cl)C1 (centres unmarked) [Compound 45-1, 4-(4-{[2-(2-chloro-4-trifluoromethylphenyl)-4,4-dimethylcyclohex-1-enyl]methyl}-piperazin-1-yl)-N-({3-nitro-4-[((2-tetrahydropyran-3-yl)ethyl)amino]phenyl}sulfonyl)-2-(1H-pyrrolo[2,3-b]pyridin-5-yloxy)-benzamide]
1.1 | – | 1 | CN(C)CC(=O)N1CCC(CNc2ccc(S(=O)(=O)NC(=O)c3ccc(N4CCN(CC5=C(c6ccc(C(F)(F)F)cc6Cl)CC(C)(C)CC5)CC4)cc3Oc3cnc4[nH]ccc4c3)cc2[N+](=O)[O-])CC1 [Compound 59-1]
1.52 | – | 3.2 | CC(=O)N1CCO[C@@H](CNc2ccc(S(=O)(=O)NC(=O)c3ccc(N4CCN(CC5=C(c6ccc(C(F)(F)F)cc6Cl)CC(C)(C)CC5)CC4)cc3Oc3cnc4[nH]ccc4c3)cc2[N+](=O)[O-])C1 [Compound 61-1, (S)-4-(4-{[2-(2-chloro-4-trifluoromethylphenyl)-4,4-dimethylcyclohex-1-enyl]methyl}-piperazin-1-yl)-N-({3-nitro-4-[((4-acetylmorpholin-2-yl)methyl)amino]phenyl}sulfonyl)-2-(1H-pyrrolo[2,3-b]pyridin-5-yloxy)-benzamide]
0.8 | > 2000 | – | CC1(C)CCC(CN2CCN(c3ccc(C(=O)NS(=O)(=O)c4ccc(NCC5CCOCC5)c([N+](=O)[O-])c4)c(Oc4cnc5[nH]ccc5c4)c3)CC2)=C(c2ccc(C(F)(F)F)c(Cl)c2)C1 [Compound 4-1, 4-(4-{[2-(3-chloro-4-trifluoromethylphenyl)-4,4-dimethylcyclohex-1-enyl]methyl}-piperazin-1-yl)-N-({3-nitro-4-[(tetrahydro-2H-pyran-4-ylmethyl)amino]phenyl}sulfonyl)-2-(1H-pyrrolo[2,3-b]pyridin-5-yloxy)-benzamide]
